Laboratory results from patent US11771086B2, “Pest control composition including novel iminopyridine derivative” (priority 2012, dated 2023).

Experiments:
Format in all cases: in vivo
Plutella xylostella = assay: Reference Test Example 1 Pest control test of Plutella xylostella (foliar treatment, single agent); conditions: Plutella xylostella, foliar, 72 h
Description: After an air drying process, second instar larvae were released thereto. […] Test in duplicate.

[1] = tested on: Frankliniella occidentalis; assay: Reference Test Example 9 Pest control test of Frankliniella occidentalis (foliar treatment, single agent); conditions: 72 h
Description: After an air drying process, first instar larvae were released to the leaf disk. Thereafter, the larvae were left to stand in a thermostatic chamber (16 hours of light period-8 hours of dark period) at 25° C. […] Test in duplicate. Mortality of larvae (%)={number of dead larvae/(number of survived larvae+number of dead larvae)}×100

Plautia crossota stali = assay: Reference Test Example 11 Pest control test of Plautia crossota stali (sprayed young apple fruit); conditions: foliar, 144 h
Description: After an air drying process, the young fruit was placed into a plastic cup, and two adults of Plautia crossota stali were released thereto. […] Mortality of adults (%)={number of dead adults/(number of survived adults+number of dead adults)}×100

Oulema oryzae = assay: Reference Test Example 12 Pest control test of Oulema oryzae (topical application); conditions: throughput of 0.5 μg/head; adults; forty eight hours after the treatment
Description: 1 μL(/head) of a drug solution of the compound of Formula (I) prepared at a predetermined concentration with acetone was topically applied and treated to the back of adults collected outdoors by a micro syringe. After the drug treatment, the adults were transferred to rice seedlings and left to stand in a thermostatic chamber at 25° C. so as to obtain 5 heads per stem. […] Test in duplicate. Mortality of adults (%)={number of dead adults/(number of survived adults+number of dead adults)}×100

[2] = tested on: Lissorhoptrus oryzophilus; assay: Reference Test Example 17 Pest control test of Lissorhoptrus oryzophilus (soil drench, single agent); conditions: throughput of 0.1 mg/seedling, adults, three days after the release
Description: Two days after the treatment, five adults of Lissorhoptrus oryzophilus were each released thereto. […] Test in duplicate.

Spodoptera litura = assay: whole plant or invertebrate; conditions: Spodoptera litura
Description: After an air drying process, third instar larvae were released thereto. […] The test was performed in duplicate.
(§1) Method for Judging Synergistic Effects

Naranga aenescens = tested on: Naranga aenescens
Description: After standing for 3 days, first instar larvae were released thereto. […] The test was performed in duplicate.
as §1

Question: With `O=C(N=c1ccccn1Cc1ccc(Cl)nc1)C(F)(F)F` [Compound P212, N-[1-((6-chloropyridin-3-yl)methyl)pyridin-2(1H)-ylidene]-2,2,2-trifluoroacetamide] as the molecule, how does the mortality at 100 ppm (Plutella xylostella) read?
Answer: Its mortality at 100 ppm is at least 80%.

Question: What about the mortality at 500 ppm [1] of the same molecule?
Answer: Its mortality at 500 ppm is at least 80%.

Question: And the mortality at 50 ppm (Plautia crossota stali)?
Answer: The mortality at 50 ppm was at least 60%.

Question: What about the mortality (Oulema oryzae) of the same molecule?
Answer: The mortality was at least 80%.

Question: And the mortality [2]?
Answer: Its mortality is at least 80%.

Question: And the mortality at 50 ppm (Spodoptera litura; foliar, 72 h, read-out: Mortality of single agent against Spodoptera litura, single agent 50 ppm, cabbage leaf disk spray, three days)?
Answer: Its mortality at 50 ppm is 10%.

Question: And the “Theoretical value by Colby's equation” value (Spodoptera litura; single agent 50 ppm (other component 0))?
Answer: Its value is 10%.

Question: What about the “Theoretical value by Colby's equation” value (Naranga aenescens; Naranga aenescens, single agent 0.01 mg/seedling (other component 0)) of the same molecule?
Answer: The value was 60%.

Question: What about the “Mortality of single agent against Naranga aenescens” value (Naranga aenescens; single agent 0.01 mg/seedling, soil irrigation, five days after release) of the same molecule?
Answer: The value was 60%.
